These results are taken from patent publication US7652034B2, “Enantiomer (-) of tenatoprazole and the therapeutic use thereof” (Sidem Pharma, priority 2004, dated 2010).

Like-named read-outs stand apart in the source and are kept apart here.

For data set [1] the following is noted: doses of between 10 mg and 80 mg; previous studies; cited from earlier work.
For data set [2] the following is noted: recent studies; versus omeprazole, lansoprazole and other PPIs; cited from earlier work.
Data set [3] in a line: analysis of plasma enantiomers in subjects by CYP2C19 genotype. Particulars: for enantiomer in plasma: CYP2C19*2/*2 genotype, weak activity of cytochrome CYP2C19, slow metabolisers; for enantiomer in plasma (concentration): CYP2C19*1/*1 genotype, normal activity of cytochrome CYP2C19, rapid metabolisers. The data set is classed as in vivo, human. From the text:
More particularly, the unexpected pharmacokinetic properties of the (−) enantiomer of tenatoprazole were discovered during an extensive program of pharmacokinetic and metabolism studies in vitro and in vivo.
The homozygous subjects have a very weak metabolic activity of the cytochrome CYP2C19 which is responsible for the metabolism of tenatoprazole. […] These subjects are qualified as “slow metabolisers”.

Data set [4] has as its system ligature of the pylorus in the rat (gastric secretions). In words: model of ligature of the pylorus in the rat: volume and pH of gastric secretion. The data set is classed as in vivo. Particulars: for pharmacological effect 10 h after treatment administration: pylorus ligature, as compared to the control group. As for the experimental part: In vivo Studies in Rats: Assessment of Volume and pH of Gastric Secretion. Studies conducted by the applicant in vivo in a model of ligature of the pylorus in the rat have investigated the pharmacological effects of the (−) and (+) isomers of tenatoprazole. In this well established and validated model, animals are pre-treated at different time points (10, 16 and 20 h) before ligature of the pylorus, and the volume and pH of the gastric secretions are measured 4 h after the ligature.

Data set [5] relates to intragastric pH in dogs. In words: antisecretory effect in dogs: intragastric pH over 24 h. Conditions: for % of holding time for 24 hours pH > 3 / % of holding time for 24 hours pH > 4: 10 mg/kg/day. The data set is classed as in vivo. As for the experimental part: In vivo Studies in Dogs: Assessment of the Antisecretory Effect. Studies conducted by the applicant in vivo in dogs have investigated the antisecretory effect of the (−) isomer of tenatoprazole and the (+) isomer, by measuring the intragastric pH after treatment administration for 6 days (10 mg/kg/day). The profile of intragastric pH during a 24-hour period was recorded on the first two days of administration, on the 6th day, and two days after treatment termination. These pH values were compared to those measured at baseline, prior to treatment administration. The results corresponding to the pH>3 and pH>4 holding time for 24 h, expressed in percent, are described below: […]

Data set [6] deals with cytochromes CYP3A4 and CYP2C19. In words: cytochromes that intervene in the metabolism of tenatoprazole. The data set is classed as in vitro ADME. From the text:
Further, it has been shown that different cytochromes intervene in the metabolism of tenatoprazole.

Data set [7] is described as follows: elimination half-life in slow metabolisers. The data set is classed as in vivo, human. Particulars: slow metabolisers (deficient in CYP2C19 activity). As for the experimental part: In another study, it was assessed that the elimination half-life of the (−) isomer of tenatoprazole is approximately 4 times shorter than that of the (+) isomer in slow metabolisers (which are deficient in CYP2C 19 activity), as summarised in the following table: […]

The target of data set [8] is CYP2C19 (Homo sapiens, UniProt P33261). In words: in vitro metabolism by cytochrome: maximal rate of metabolism (Vmax). Conditions: for Vmax (maximal rate of metabolism): in vitro. The data set is classed as in vitro ADME. From the text:
Vmax (−) is the value of Vmax of the (−) enantiomer of tenatoprazole.

A short description of data set [9]: pharmacokinetic study in Caucasian subjects, acute and repeated administration (7 days) of tenatoprazole. The data set is classed as in vivo, human. As for the experimental part: In order to assess the difference in pharmacokinetic characteristics between the (−) enantiomer of the invention and the (+) enantiomer, a pharamcokinetic study was conducted.
Said study was carried out in Caucasian subjects, after an acute and repeated administration (7 days) of tenatoprazole. […] In contrast, it was observed that the evolution of the plasma concentration of the (+) isomer is not linear, and thus not predictive of the efficacy and the tolerability of the drug.

A short description of data set [10]: mean plasma half-life at doses between 10 mg and 80 mg. The data set is classed as in vivo. Conditions: human, doses of between 10 mg and 80 mg. As for the experimental part: In contrast, previous studies have shown that the racemic mixture has a mean plasma half-life of approximately 7 hours at this range of doses
A short description of data set [11]: in vivo pharmacokinetic and metabolism study in dogs.
Data set [12] has as its system ulcerative lesions in rats. In words: onset of healing and normalisation of histological changes of ulcerative lesions in rats. The data set is classed as in vivo. From the text: In vivo Studies in Rats: Assessment of the Onset of Healing and the Increase of Normalisation of Histological Changes of the Lesions. […] Thus, the effect observed with the (−) enantiomer of tenatoprazole appeared 1 day before those of the (+) enantiomer. […] These changes consisted in a reduction of the ultrastructural damage resulting in a complete morphological recovery of the oesophageal epithelium.

Setting [13] is: 10 h after treatment administration, gastric secretions measured 4 h after the ligature.
The mark [14] stands for this setting: after 7 days of treatment with tenatoprazole.

Sequence of CYP2C19 (P33261 whole entry): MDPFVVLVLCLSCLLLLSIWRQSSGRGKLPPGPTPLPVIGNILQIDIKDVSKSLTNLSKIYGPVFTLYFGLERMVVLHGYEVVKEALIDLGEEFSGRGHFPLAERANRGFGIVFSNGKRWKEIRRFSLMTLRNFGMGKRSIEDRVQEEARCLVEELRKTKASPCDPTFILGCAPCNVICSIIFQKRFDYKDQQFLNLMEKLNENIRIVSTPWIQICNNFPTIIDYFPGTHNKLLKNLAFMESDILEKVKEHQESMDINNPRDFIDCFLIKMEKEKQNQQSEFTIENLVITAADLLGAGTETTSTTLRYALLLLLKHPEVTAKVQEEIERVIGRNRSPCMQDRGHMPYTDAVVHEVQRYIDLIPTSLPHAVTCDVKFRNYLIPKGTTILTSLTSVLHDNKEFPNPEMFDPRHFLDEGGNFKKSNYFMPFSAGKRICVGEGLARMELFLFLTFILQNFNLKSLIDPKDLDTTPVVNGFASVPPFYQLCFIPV

Consider `COc1ccc2[nH]c([S+]([O-])Cc3ncc(C)c(OC)c3C)nc2n1` (racemic) [racemic mixture, 5-methoxy-2-[[(4-methoxy-3,5-dimethyl-2-pyridyl)methyl]sulfinyl]imidazo[4,5-b]pyridine], for which the mean plasma half-life result in data set [1] is listed as “approximately 7 hours”. Further, the “half-life in plasma compared with the other PPIs” value in data set [2] is “approximately seven times longer”.

As to `COc1ccc2[nH]c([S@+]([O-])Cc3ncc(C)c(OC)c3C)nc2n1` (single isomer, unassigned) [(+) isomer, reference compound], the enantiomer in plasma entry in data set [3] (listed as (+) Enantiomer) is listed as “Increased”. In data set [3] (listed as (+) enantiomer), the enantiomer in plasma entry is given as “highly significant increase”. Besides, in [4] (setting [13]), the “Free acid (gastric acidity, change as compared to the control group)” value is given as −30% and the “pH (change as compared to the control group)” value is given as “+30%”. Moreover, the “pharmacological effect 10 h after treatment administration” value in data set [4] is given as “no longer significant”. In addition, the “inhibition of gastric secretion” value in [5] (10 mg/kg/day for 6 days) is “inhibit gastric secretion”. Also, the “cytochromes via which the enantiomer is metabolised” value in data set [6] is “mainly the CYP2C19 and, to a lesser extent, by CYP3A4”. Besides, the “T1/2 (elimination half-life)” value in data set [7] stood at 36.7 ± 4.5 h. Besides, the “Vmax (maximal rate of metabolism)” value in [8] is on record as 12.63 pmol/min per pmol of cytochrome. For the same compound, the “plasma concentration versus dose” value in data set [9] (setting [14]) is “not linear”.

Regarding `COc1ccc2[nH]c([S+]([O-])Cc3ncc(C)c(OC)c3C)nc2n1` (single isomer, unassigned; (-)) [(−) isomer, (−)-5-methoxy-2-[[(4-methoxy-3,5-dimethyl-2-pyridyl)methyl]sulfinyl]imidazo[4,5-b]pyridine], the “enantiomer in plasma (concentration)” value was “Increased” in data set [3] (listed as (−) Enantiomer) and “higher than that of the (+) enantiomer” in data set [3] (listed as (−) enantiomer). For the same compound, the “pharmacological effect 10 h after treatment administration” value in data set [4] is “remains pharmacologically active”. Further, the “inhibition of gastric secretion” value in data set [5] (10 mg/kg/day for 6 days) is listed as “inhibit gastric secretion”. In data set [5] (10 mg/kg/day for 6 days, compared to baseline), the “time over which a significant effect is observed” value is “from the first day of administration, and is maintained until two days after treatment termination”. For the same compound, the “% of holding time for 24 hours pH > 3” value in data set [5] (1st day of treatment) stood at 73%; in data set [5] (2nd day of treatment), 82%; in [5] (6th day of treatment) it was 93%. Besides, the entries for the “% of holding time for 24 hours pH > 4” value in [5] (1st day of treatment), in data set [5] (2nd day of treatment) and in data set [5] (6th day of treatment) were 55%, 75% and 75%, respectively. In addition, the “cytochromes via which the enantiomer is metabolised” value in data set [6] (human, cytochromes (CYP3A4, CYP2C19) in vitro) is “mainly metabolised via the cytochrome CYP3A4”. Besides, the half-life in data set [7] (human, in vivo, read-out: T1/2 (elimination half-life) (converted)) was 9.7 ± 0.9 h; in data set [10], 10 to 12 h. In data set [7], the “elimination half-life shorter than that of the (+) isomer” value is “approximately 4 times”. Moreover, the “metabolised more slowly than the (+) enantiomer” value in data set [8] (from Vmax values) is on record as “approximately 7 times”. Moreover, the “Vmax (maximal rate of metabolism)” value in [8] is 1.90 pmol/min per pmol of cytochrome. In addition, in data set [11], the “half-life in comparison with the (+) enantiomer” value was “significantly longer”. In data set [9] (setting [14]), the AUC versus dose entry is listed as “linear with the dose”. In addition, the “plasma concentration versus dose” value in data set [9] (setting [14]) was “linear with the dose”. Besides, in data set [9] (compared to the (+) isomer), the “between-subject variability of pharmacokinetic parameters” value is “markedly lower”. The “quality of healing (normalization of histological changes)” value in data set [12] is listed as “significant increase”. The “onset of healing of ulcerative lesions” value in data set [12] (as compared with the (+) enantiomer) was “significantly improved”. Further, in data set [12] (healing of ulcerative lesions), the “appearance of the effect before that of the (+) enantiomer” value is 1 days.
